Experimental data from ChEMBL document CHEMBL1201862, “PubChem BioAssay data set” (2004).
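96-well plates; 48 h exposure; 5 concentrations. Endpoints by linear interpolation between flanking doses. Not reached: highest tested concentration assigned. At the GI50, growth is halved.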 Active and inactive are the calls of the source. Rule as the data show it: active = GI50 up to about 1.1 µM and inactive = higher.

How the values were obtained:
Test in all cases: inhibition of tumour cell growth, NCI panel, 48 h
[1] = system: 786-0
[2] = system: A549
[3] = system: ACHN
[4] = system: BT-549
[5] = system: CCRF-CEM
[6] = system: COLO 205
[7] = system: DU-145
[8] = system: EKVX
[9] = system: HCC 2998
[10] = system: HCT-116
[11] = system: HCT-15
[12] = system: HL-60
[13] = system: HOP-62
[14] = system: HT-29
[15] = system: Hs-578T
[16] = system: IGROV-1
[17] = system: KM12
[18] = system: LOX IMVI
[19] = system: M14
[20] = system: MCF7
[21] = system: MDA-MB-231
[22] = system: MDA-MB-435
[23] = system: MDA-N
[24] = system: MOLT-4
[25] = system: Malme-3M
[26] = system: NCI-H226
[27] = system: NCI-H23
[28] = system: NCI-H460
[29] = system: NCI-H522
[30] = system: NCI/ADR-RES
[31] = system: OVCAR-3
[32] = system: OVCAR-4
[33] = system: OVCAR-5
[34] = system: OVCAR-8
[35] = system: PC-3
[36] = system: RPMI-8226
[37] = system: SF-268
[38] = system: SF-295
[39] = system: SF-539
[40] = system: SK-MEL-28
[41] = system: SK-MEL-2
[42] = system: SK-MEL-5
[43] = system: SK-OV-3
[44] = system: SN12C
[45] = system: SNB-19
[46] = system: SNB-75
[47] = system: SR
[48] = system: SW-620
[49] = system: T47D
[50] = system: TK-10
[51] = system: U-251
[52] = system: UACC-257
[53] = system: UACC-62
[54] = system: UO-31
[55] = system: A498
[56] = system: CAKI-1
[57] = system: HOP-92
[58] = system: K562
[59] = system: RXF 393

`CCCCc1ccc(-n2sc3ncccc3c2=O)cc1` was tested, and the GI50 [1] was 9.42 µM (inactive), the GI50 [2] was 14 µM (inactive) and the GI50 [3] was 11.4 µM (inactive). The GI50 [4] was 19.1 µM (inactive), the GI50 [5] was 2.17 µM (inactive) and the GI50 [6] was 17.3 µM (inactive). The GI50 [7] was 21 µM (inactive), the GI50 [8] was 11.1 µM (inactive) and the GI50 [9] was 5.35 µM (inactive). For the same molecule, the GI50 [10] was 11.6 µM (inactive), the GI50 [11] was 5.52 µM and the GI50 [12] was 0.908 µM (active). The GI50 [13] was 11 µM (inactive), the GI50 [14] was 16.1 µM (inactive) and the GI50 [15] was 15.7 µM (inactive). For the same molecule, the GI50 [16] was 12.3 µM (inactive), the GI50 [17] was 13.4 µM (inactive) and the GI50 [18] was 5.66 µM (inactive). For the same molecule, the GI50 [19] was 11.2 µM (inactive), the GI50 [20] was 23.8 µM (inactive) and the GI50 [21] was 15.6 µM (inactive). The GI50 [22] was 16.3 µM (inactive), the GI50 [23] was 13.9 µM (inactive) and the GI50 [24] was 4.74 µM (inactive). The GI50 [25] was 3.96 µM (inactive), the GI50 [26] was 7.67 µM (inactive) and the GI50 [27] was 15.9 µM (inactive). For the same molecule, the GI50 [28] was 5.26 µM (inactive), the GI50 [29] was 2.58 µM (inactive) and the GI50 [30] was 14.4 µM (inactive). The GI50 [31] was 10.2 µM (inactive), the GI50 [32] was 13.6 µM (inactive) and the GI50 [33] was 18.5 µM (inactive). For the same molecule, the GI50 [34] was 12.5 µM (inactive), the GI50 [35] was 11 µM (inactive) and the GI50 [36] was 8.02 µM (inactive). For the same molecule, the GI50 [37] was 8.75 µM (inactive), the GI50 [38] was 12.6 µM (inactive) and the GI50 [39] was 21 µM (inactive). The GI50 [40] was 13.9 µM (inactive), the GI50 [41] was 12.2 µM (inactive) and the GI50 [42] was 11.3 µM (inactive). The GI50 [43] was 26.9 µM (inactive), the GI50 [44] was 16.4 µM (inactive) and the GI50 [45] was 21.9 µM (inactive). For the same molecule, the GI50 [46] was 22.4 µM (inactive), the GI50 [47] was 4.72 µM (inactive) and the GI50 [48] was 13.9 µM (inactive). For the same molecule, the GI50 [49] was 13 µM (inactive), the GI50 [50] was 14.4 µM (inactive) and the GI50 [51] was 15.1 µM (inactive). For the same molecule, the GI50 [52] was 16.3 µM (inactive), the GI50 [53] was 12.4 µM (inactive) and the GI50 [54] was 11.3 µM (inactive).
`CC(C)(C)C1(O)C=C(O)C(=O)N1NC(=O)c1ccccc1Nc1ccccc1` (configuration not stated) was tested, and the GI50 [1] was 56.9 µM (inactive), the GI50 [55] was 32.1 µM (inactive) and the GI50 [2] was > 100 µM (inactive). For the same molecule, the GI50 [3] was 47.5 µM (inactive), the GI50 [4] was 28 µM (inactive) and the GI50 [56] was > 100 µM (inactive). For the same molecule, the GI50 [5] was 8.43 µM (inactive), the GI50 [6] was 29 µM (inactive) and the GI50 [7] was > 100 µM (inactive). For the same molecule, the GI50 [8] was 53.6 µM (inactive), the GI50 [9] was 19.2 µM (inactive) and the GI50 [10] was 38.6 µM (inactive). For the same molecule, the GI50 [11] was 22.9 µM, the GI50 [12] was 0.847 µM (active) and the GI50 [57] was 38.7 µM (inactive). The GI50 [14] was 41.1 µM (inactive), the GI50 [15] was 87.1 µM (inactive) and the GI50 [16] was 66.7 µM (inactive). For the same molecule, the GI50 [58] was 20.2 µM (inactive), the GI50 [17] was 40.9 µM (inactive) and the GI50 [18] was 17.5 µM (inactive). For the same molecule, the GI50 [19] was 76.4 µM (inactive), the GI50 [20] was 33.3 µM (inactive) and the GI50 [21] was 42 µM (inactive). The GI50 [22] was 40.6 µM (inactive), the GI50 [23] was 62.2 µM (inactive) and the GI50 [24] was 2.4 µM (inactive). For the same molecule, the GI50 [25] was 32.7 µM (inactive), the GI50 [26] was 48.2 µM (inactive) and the GI50 [27] was 41 µM (inactive). For the same molecule, the GI50 [28] was 34.4 µM (inactive), the GI50 [29] was 16.6 µM (inactive) and the GI50 [30] was 27.7 µM (inactive). The GI50 [31] was 6.84 µM (inactive), the GI50 [32] was 32.9 µM (inactive) and the GI50 [33] was 84.5 µM (inactive). For the same molecule, the GI50 [34] was 37.9 µM (inactive), the GI50 [35] was 40 µM (inactive) and the GI50 [36] was 54.2 µM (inactive). The GI50 [59] was 60.5 µM (inactive), the GI50 [37] was 24.7 µM (inactive) and the GI50 [38] was 25.2 µM (inactive). The GI50 [39] was 41.4 µM (inactive), the GI50 [40] was 50.2 µM (inactive) and the GI50 [41] was 24.7 µM (inactive). For the same molecule, the GI50 [42] was 35.4 µM (inactive), the GI50 [43] was 25.4 µM (inactive) and the GI50 [44] was 60.5 µM (inactive). For the same molecule, the GI50 [45] was 54.8 µM (inactive), the GI50 [46] was 61.4 µM (inactive) and the GI50 [48] was 34 µM (inactive). For the same molecule, the GI50 [49] was 36.1 µM (inactive), the GI50 [50] was 46.3 µM (inactive) and the GI50 [51] was 18.2 µM (inactive). The GI50 [52] was 24.2 µM (inactive), the GI50 [53] was 24.8 µM (inactive) and the GI50 [54] was > 100 µM (inactive).
For `COc1cc2c(cc1OC)C1C(O)C(OC)C=C3CC[N+](C)(C2)C31` (configuration not stated), the GI50 [1] was > 100 µM (inactive), the GI50 [55] was > 100 µM (inactive) and the GI50 [2] was > 100 µM (inactive). For the same molecule, the GI50 [3] was > 100 µM (inactive), the GI50 [4] was > 100 µM (inactive) and the GI50 [56] was > 100 µM (inactive). The GI50 [5] was > 100 µM (inactive), the GI50 [6] was > 100 µM (inactive) and the GI50 [7] was > 100 µM (inactive). For the same molecule, the GI50 [8] was > 100 µM (inactive), the GI50 [9] was > 100 µM (inactive) and the GI50 [10] was > 100 µM (inactive). For the same molecule, the GI50 [11] was > 100 µM, the GI50 [12] was > 100 µM (inactive) and the GI50 [13] was > 100 µM (inactive). The GI50 [57] was > 100 µM (inactive), the GI50 [14] was > 100 µM (inactive) and the GI50 [15] was > 100 µM (inactive). The GI50 [16] was > 100 µM (inactive), the GI50 [17] was > 100 µM (inactive) and the GI50 [19] was > 100 µM (inactive). The GI50 [20] was > 100 µM (inactive), the GI50 [21] was > 100 µM (inactive) and the GI50 [22] was > 100 µM (inactive). The GI50 [23] was > 100 µM (inactive), the GI50 [24] was > 100 µM (inactive) and the GI50 [25] was > 100 µM (inactive). For the same molecule, the GI50 [26] was > 100 µM (inactive), the GI50 [27] was > 100 µM (inactive) and the GI50 [28] was > 100 µM (inactive). For the same molecule, the GI50 [29] was > 100 µM (inactive), the GI50 [30] was > 100 µM (inactive) and the GI50 [31] was > 100 µM (inactive). For the same molecule, the GI50 [32] was > 100 µM (inactive), the GI50 [33] was > 100 µM (inactive) and the GI50 [34] was > 100 µM (inactive). The GI50 [35] was > 100 µM (inactive), the GI50 [36] was > 100 µM (inactive) and the GI50 [59] was > 100 µM (inactive). For the same molecule, the GI50 [37] was > 100 µM (inactive), the GI50 [38] was > 100 µM (inactive) and the GI50 [39] was > 100 µM (inactive). For the same molecule, the GI50 [40] was > 100 µM (inactive), the GI50 [41] was > 100 µM (inactive) and the GI50 [42] was > 100 µM (inactive). The GI50 [43] was > 100 µM (inactive), the GI50 [44] was > 100 µM (inactive) and the GI50 [45] was > 100 µM (inactive). The GI50 [46] was > 100 µM (inactive), the GI50 [48] was > 100 µM (inactive) and the GI50 [49] was > 100 µM (inactive). The GI50 [50] was > 100 µM (inactive), the GI50 [51] was > 100 µM (inactive) and the GI50 [52] was > 100 µM (inactive). For the same molecule, the GI50 [53] was > 100 µM (inactive) and the GI50 [54] was > 100 µM (inactive).
